Drawing on ChEMBL document CHEMBL4706675, “Ulmusakidian, a new coumarin glycoside and antifungal phenolic compounds from the root bark of Ulmus davidiana var. japonica” (2021), this text covers Activity for ten compounds.

Each structure is given as a SMILES string. The source made the active and inactive calls. The calls are words filed in the database; no cut-off is given here.

This experiment relates to Candida albicans. As to the kind of experiment: Antifungal activity against Candida albicans assessed as fungal growth inhibition. Type of experiment: functional, organism-based.
With `COc1ccc(-c2oc3cc(OC)cc(OC)c3c(=O)c2OC)cc1`, the outcome was inactive.

Turning to `COc1cc(C[C@@H](CO)[C@H](COC2OC[C@@H](O)[C@H](O)[C@H]2O)Cc2cc(OC)c(O)c(OC)c2)cc(OC)c1O` (stereo not given in full), the result was inactive. Take `COc1cc(O)c2c(=O)c(O[C@@H]3O[C@@H](C)[C@H](O)[C@@H](O)[C@H]3O)c(-c3ccc(O)c(O)c3)oc2c1`: the outcome was inactive.

As to `COc1cc(C(=O)OC[C@H]2O[C@@H](Oc3c(O)c(OC)cc4ccc(=O)oc34)[C@H](O)[C@@H](O)[C@@H]2O)ccc1O`, the outcome was inactive.

Take `COc1ccc(-c2cc(=O)c3c(OC)cc(OC)cc3o2)cc1`: the result was inactive. The result for `COc1cc(C(=O)OC[C@H]2O[C@@H](Oc3c(O)c(OC)cc4ccc(=O)oc34)[C@H](O)[C@@H](O)[C@@H]2O)cc(OC)c1O` reads “inactive”.

Consider `COc1cc2c(cc1O)[C@H](c1cc(OC)c(O)c(OC)c1)[C@@H](COC1OC[C@@H](O)[C@H](O)[C@H]1O)[C@H](CO)C2` (stereo not given in full), for which the result was inactive.

For the compound `COc1cc([C@H]2c3cc(O)c(OC)cc3C[C@@H](CO)[C@@H]2COC2OC[C@@H](O)[C@H](O)[C@H]2O)ccc1O` (stereo not given in full), the result was inactive. The result for `COc1ccc(-c2cc(=O)c3c(O)cc(O)cc3o2)cc1` reads “inactive”. As for `COc1cc([C@@H]2Oc3c(OC)cc(CCCO)cc3[C@H]2CO)ccc1O[C@@H]1O[C@@H](C)[C@H](O)[C@@H](O)[C@H]1O`, the outcome was inactive.
